Measurements: patent US20080207522A1, “Antimicrobial Peptides” (priority 2004, published 2008)

Tests used:
[1] = system: Pseudomonas aeruginosa strain H1001; assay: Assay for the cleaved (free, soluble) peptides from cellulose support, luminescence killing assay; type: cell-based; set-up: key: 1: Peptides showing stronger killing than Bac2A at a 4 to 8-fold higher dilution; Peptides showing stronger killing compared to that of Bac2A at a 4-fold higher dilution; 3: Peptides similar to Bac2A; 4: Peptides similar to Bac2A at the highest concentration but demonstrating weaker killing at a 2-fold dilution; 5: Peptides giving very weak or no killing at a 2-fold dilution; 6: Peptides with weak killing activity at the highest concentration; conditions: free (cleaved) peptides, killing relative to Bac2A
Protocol: Assay for the cleaved peptides from cellulose support. The peptides were cleaved from the dried membrane in an ammonia atmosphere overnight, resulting in free peptides with an amidated C-terminus. The free peptides contained two β-alanines at the C-terminus, in addition to being amidated due to the linker between the cellulose membrane and the peptide sequence. The peptide spots were punched out and transferred in a 96-well microtiter plate. Serial dilutions were carried out from the membrane spots. Four rows were filled with four controls including two with Bac2A and two with of an unrelated peptide. The other eight rows were used for serial dilution steps of the peptide variants. An overnight culture of Pseudomonas aeruginosa strain H1001 was diluted 1:500 using either LB media or 100 mM Tris buffer pH 7.3, 20 mM glucose and was added to the wells (100 μl/well) containing the peptide spots. In all other wells 50 μl were added. The microtiter plate was incubated for 30 min at 37° C. to release the peptides from the membrane. Subsequently, a dilution series were performed and the plate was incubated at 37° C. The luminescence produced by the ATP dependent luciferase system were detected in a time dependent manner using a Tecan Spectra Fluor plus.
(§1) Strains. For the killing assay a mini-Tn5-lux mutant in Pseudomonas aeruginosa H103 was used. The strain is called H1001 and contains a fliC::luxCDABE transcriptional fusion resulting in constitutive expression of luciferase. The bacterial strains used for the antimicrobial activity assays included Escherichia coli UB1005 (F-, nalA37, metB1), a wild-type Salmonella enterica ssp. Typhimurium (S. Typhimurium), wild-type Pseudomonas aeruginosa PAO1 strain H103, Enterococcus faecalis ATCC29212, Staphylococcus aureus ATCC25923, and a clinical isolate of Staphylococcus epidermidis obtained from Dr. D. Speert (Department of Medicine, University of British Columbia). Antifungal activity was tested using a lab isolate of Candida albicans obtained from Dr. B. Dill (Department of Microbiology and Immunology, University of British Columbia).
Peptide synthesis on cellulose is a very effective and inexpensive way to investigate many different peptide variants for one particular activity. However, one of the problems of this technique is the low peptide density synthesized on the membrane, about 280 nmol per cm2. An average peptide spot used for the experiments presented is about 0.3 cm2. Therefore, an assay had to be developed that was sensitive enough to show activity with this amount of peptides. P. aeruginosa H1001 has a reporter system (e.g., a luciferase gene cassette) incorporated into the bacterial chromosome in the fliC gene (involved in flagellar biosynthesis) that is constitutively expressed. It will thus produce light if ATP is present. When this strain is killed, e.g. by peptides, the amount of light produced will decrease due to a decrease in ATP levels in the killed cells. This action can thus be monitored by detecting luminescence in a microtiter plate luminescence reader over time. The volume and amount of cells per well were optimized for this assay. After screening, the killing action was monitored with small amounts of the parent peptide Bac2A (2 μg/ml of free peptide).
Forty-nine scrambled peptides (Bac002-Bac050) were synthesized on the cellulose support and then cleaved by ammonia gas resulting in free peptides with an amidated C-terminus including the linker. The peptide spots were transferred to a 96-well microtiter plate and incubated for 30 min to dissociate the peptides from the cellulose. After serial dilution and addition of strain H1001, luminescence was recorded in a time dependent manner (FIG. 1). All 50 scrambled peptides were compared to Bac2A ([…]-NH2; SEQ ID NO: 1) by this assay (see Table 2). […] Further since all scrambled peptides had some activity, a sequence-specific interaction of the peptides with a receptor or target could be excluded.

[2] = system: Pseudomonas aeruginosa strain H1001 fliC::luxCDABE; assay: Luminescence-based assay for the non-cleaved (bound) peptides on cellulose membranes; type: cell-based; conditions: for Luminescence at the given time in minutes: 0 / Luminescence at the given time in minutes: 20 / Luminescence at the given time in minutes: 40 / Luminescence at the given time in minutes: 60 / Luminescence at the given time in minutes: 80 / Luminescence at the given time in minutes: 100 / Luminescence at the given time in minutes: 120 / Luminescence at the given time in minutes: 180 / Luminescence at the given time in minutes: 240: cellulose-bound peptide; for Luminescence at the given time in minutes: 0: 0 min; for Luminescence at the given time in minutes: 20: 20 min; for Luminescence at the given time in minutes: 40: 40 min; for Luminescence at the given time in minutes: 60: 60 min; for Luminescence at the given time in minutes: 80: 80 min; for Luminescence at the given time in minutes: 100: 100 min; for Luminescence at the given time in minutes: 120: 120 min; for Luminescence at the given time in minutes: 180: 180 min; for Luminescence at the given time in minutes: 240: 240 min; for Activity Class bound: uncleaved cellulose-bound peptides
Protocol: Luminescence-based MIC assay for the non-cleaved peptides on cellulose membranes. The peptide spots were punched out and transferred to a 96 well microtiter plate with a clear polystyrene bottom and opaque white polypropylene sides (PerkinElmer, Boston, USA). The spots were washed two times with 100% ethanol for 5 min and afterwards equilibrated five times with 100 mM Tris buffer pH 7.3 for 5 min. An overnight culture of Pseudomonas aeruginosa strain H1001 fliC::luxCDABE was diluted 1:50 in new MH medium and incubated at 37° C. to an OD600 of 0.35. This bacterial culture was diluted 1:25 into 10 mM Tris-HCl buffer, pH 7.3 containing 20 mM glucose. Fifty μl of this culture was added to all wells of the microtiter plate and incubated at 37° C. The luminescence of the strain produced by the ATP-dependent luciferase system was detected in a time dependent manner using a Tecan Spectra Fluor plus (Tecan, Austria). At the end of the experiment, the membranes were cleaned by washing the spots two times with 100% ethanol for five minutes. After removing the ethanol the membrane was air-dried.
as §1
The same set of peptides, as well as the reversed sequence of Bac2A-R ([…]; SEQ ID NO: 2166), were synthesized on cellulose and left uncleaved. The production of light was initially compared in wells containing spots of Bac2A, Bac2A-R (with the reversed sequence of Bac2A), the unrelated negative-control peptide, or, as additional controls, only cellulose, or only bacteria (FIG. 2).
As a control, the negative control (unrelated) peptide Bac429 and parent peptide Bac2A (=Bac001) were used in several different wells of the microtiter plate. Luminescence (relative light units; RLU) was measured at 14 different time points, 9 of which are shown. To permit comparison of the data with the free peptide data set, the result for each peptide was classified into six different groups, like the data set with the free peptides (Table 2). […] For the soluble peptides the following classes were established: […]

| Sequence | Activity Class Soluble [1] | Luminescence at the given time in minutes: 0 [2] | Luminescence at the given time in minutes: 20 [2] | Luminescence at the given time in minutes: 40 [2] | Luminescence at the given time in minutes: 60 [2] | Luminescence at the given time in minutes: 80 [2] | Luminescence at the given time in minutes: 100 [2] | Luminescence at the given time in minutes: 120 [2] | Luminescence at the given time in minutes: 180 [2] | Luminescence at the given time in minutes: 240 [2] | Activity Class bound [2] |
| --- | --- | --- | --- | --- | --- | --- | --- | --- | --- | --- | --- |
| RAIRVRRIVLAV [Bac037] | 4 | 4908 RLU | 6480 RLU | 4105 RLU | 1624 RLU | 366 RLU | 120 RLU | 54 RLU | 59 RLU | 46 RLU | 3 (Peptides similar to Bac2A resulting in lux values of less than 500 after 240 min.) |
| VVRALRRIIARV [Bac048] | 4 | 5001 RLU | 6505 RLU | 5163 RLU | 4406 RLU | 3824 RLU | 3470 RLU | 3423 RLU | 3268 RLU | 3694 RLU | 6 (Peptides having residual luminescence (lux) values greater than 3000 after 240 min.) |
| RVLRVVRAAIRI [Bac035] | 5 | 5199 RLU | 6461 RLU | 4989 RLU | 4389 RLU | 4001 RLU | 3439 RLU | 3162 RLU | 2456 RLU | 2577 RLU | 5 (Peptides reducing luminescence (lux) values to between 1500 to 3000 after 240 min.) |
| IRARIAVRRVVL [Bac004] | 3 | 3773 RLU | 6547 RLU | 5008 RLU | 4405 RLU | 3805 RLU | 3125 RLU | 2753 RLU | 2459 RLU | 2607 RLU | 5 (Peptides reducing luminescence (lux) values to between 1500 to 3000 after 240 min.) |
| ARRARIRILVVV [Bac032] | 4 | 4649 RLU | 6342 RLU | 4584 RLU | 2088 RLU | 595 RLU | 148 RLU | 107 RLU | 54 RLU | 33 RLU | 3 (Peptides similar to Bac2A resulting in lux values of less than 500 after 240 min.) |
| RARRVRVLIAIV [Bac036] | 4 | 5208 RLU | 7062 RLU | 5114 RLU | 3233 RLU | 1182 RLU | 394 RLU | 215 RLU | 129 RLU | 107 RLU | 3 (Peptides similar to Bac2A resulting in lux values of less than 500 after 240 min.) |
| AAVRRRVRLVII [Bac010] | 1 | 4380 RLU | 6719 RLU | 4170 RLU | 1628 RLU | 562 RLU | 129 RLU | 121 RLU | 99 RLU | 56 RLU | 3 (Peptides similar to Bac2A resulting in lux values of less than 500 after 240 min.) |
| IIRAALRRVRVV [Bac009] | 5 | 3935 RLU | 6553 RLU | 4936 RLU | 4512 RLU | 3977 RLU | 3488 RLU | 3216 RLU | 3270 RLU | 3104 RLU | 6 (Peptides having residual luminescence (lux) values greater than 3000 after 240 min.) |
| VIALRIAVRRVR [Bac045] | 3 | 4873 RLU | 6105 RLU | 2726 RLU | 554 RLU | 83 RLU | 61 RLU | 37 RLU | 57 RLU | 35 RLU | 3 (Peptides similar to Bac2A resulting in lux values of less than 500 after 240 min.) |
| VILARRRVRIAV [Bac017] | 5 | 4219 RLU | 7259 RLU | 5041 RLU | 3136 RLU | 1907 RLU | 1047 RLU | 578 RLU | 321 RLU | 214 RLU | 3 (Peptides similar to Bac2A resulting in lux values of less than 500 after 240 min.) |
